System: NIH:OVCAR-3 xenograft
Assay: OVCAR-3 ovarian cancer xenograft
Type: in vivo
Conditions: for tumor volume during treatment: Phor18-LHRH 0.02-2 mg/kg, CLIP71 2 mg/kg, cisplatinum 10 mg/kg
Description: The xenograft model of the OVCAR-3 human ovarian cancer cell line that present functional LHRH receptors was used in this study. OVCAR-3 represents a slow growing xenograft model and secretes the tumor marker (cancer antigen 125, or […]). It's secretion can be used as treatment response and is a measure of drug activity.
In brief, Nu/Nu female mice, inbred strain, age 5 weeks (Harlan-Sprague Dawley) were injected subcutaneously with a NIH:OVCAR-3 cells/Matrigel suspension (4.6×10^6 cells/mouse). Treatment was started on day 33 after tumor cell injection when the tumors were established and continued on days 41 and 47. The doses for the 3 weekly injections were 0.02, 0.2 and 2 mg/kg body weight, given as a single bolus intravenous injection via lateral tail vein administered once a week for three weeks on days 33, 41 and 47. Necropsies were conducted on day 52. Data are presented as mean SEM. Arrows show dosing.
A group of 9 tumor bearing mice was sacrificed on day 33 and served as baseline group. All mice were necropsied 51-52 days after tumor cell injection. Tumor volumes and bodyweights were recorded twice weekly during the study, as well as overall veterinarian examination of mice was conducted.
Primary tumors, liver, kidney, pancreas, heart, lung, and spleen were collected, fixed in formalin and prepared for histological evaluation. Tumor weights were measured at necropsy, part of the tumors were frozen at −80° C. for LH/CG and LHRH receptor assay determination.
As a biomarker for drug activity, CA125 was determined in serum, collected from each individual mouse at necropsy using a Enzyme Linked Immunoassay for quantitative determination of ovarian cancer antigen CA125 (Assay kit Genway, Biotech, Inc. San Diego, Calif., Catalog #40-052-115009, # BC-1013 according to the manufacturer).
LHRH receptor levels were assessed from formalin fixed tumors. Quantitative immunoperoxidase image analysis was conducted with the Ventana Image Analysis System (VIAS) adjunctive computer assisted image analysis system functionally connected to an interactive microscope (Axio Imager). The quantitative analysis was conducted with the program for quantification of Her2/neu receptor that included morphometric and colorimetric analysis. Receptor status results were reported as percentage of cells showing positive staining of the LHRH receptors under the following criteria: 0 non-immunoreactive, 1+: 1-25% positive, 2+: 26-50% positive, 3+: 51-75% positive cells.

N.N.[Cl][Pt][Cl] [Cisplatinum, reference compound]
tumor volume during treatment: no reduction in tumor volume
tumor volume during treatment (listed as cisplatinum): tumor growth was observed
tumor weights at necropsy (mouse, in vivo): not effective in reducing tumor weights

Reference: patent US8318899B2, “Lytic domain fusion constructs and methods of making and using same” (Board of Supervisors of Louisiana State University and …, priority 2008, dated 2012)
